From US8871753B2, “Macrocyclic compounds and their use as kinase inhibitors” (Incyte Corporation, priority 2008, dated 2014)
Read-outs that look alike come from different tables or passages of the source.

Columns and labels:
[1] = from COc1ccc(Nc2nc(Cl)ncc2Cl)cc1CCc1cncc(N)c1; cn_pd bond; 13-membered ring; Pd(OAc)2/Xantphos/Cs2CO3; 1,4-dioxane/DMF 1:1; 77.0 mM; 150.0 °C; 0.33 h
[2] = test system: myeloid dendritic cells (DCs); details: CD40-induced maturation of myeloid DCs; cited from earlier work
[3] = test system: IL-6-dependent MM cell lines; details: cited from earlier work
[4] = patients; cited from earlier work
NOD mouse = NOD mouse model of autoimmune type 1 diabetes; cited from earlier work
[5] = cn_pd bond, 13-membered ring, Pd(OAc)2/Xantphos/Cs2CO3/Et3N, 0.5 h
[6] = molecular target: T1, human JAK1 (a.a. 837-1142) (Homo sapiens, UniProt P23458); experiment: In vitro JAK kinase assay (HTRF, phosphorylation of a biotinylated peptide), JAK1; format: biochemical; details: read-out: JAK1 IC50
T1 construct: human JAK1 (a.a. 837-1142); His tag (N); made in house; host or cells: insect cells (baculovirus)
T1 sequence (P23458 849-1154): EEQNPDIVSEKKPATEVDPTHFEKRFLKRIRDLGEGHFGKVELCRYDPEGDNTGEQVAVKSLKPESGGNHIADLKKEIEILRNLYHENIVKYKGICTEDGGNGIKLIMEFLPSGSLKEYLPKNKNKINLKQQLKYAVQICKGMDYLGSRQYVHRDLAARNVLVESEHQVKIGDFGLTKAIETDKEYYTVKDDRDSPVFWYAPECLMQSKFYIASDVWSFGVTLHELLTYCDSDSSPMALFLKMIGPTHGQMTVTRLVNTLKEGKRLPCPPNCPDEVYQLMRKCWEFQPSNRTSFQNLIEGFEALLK
In short: (§1)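 Kinase reactions ran at room temperature for 1 h with ATP matched per isoform (JAK1 90 μM, JAK2 30 μM, JAK3 3 μM). After an EDTA stop, the phosphorylated biotin-peptide was read by HTRF using Eu-Py20 and SA-APC after 40 min binding.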

[7] = molecular target: T2, human JAK2 (a.a. 828-1132) (Homo sapiens, UniProt O60674); experiment: In vitro JAK kinase assay (HTRF, phosphorylation of a biotinylated peptide), JAK2; format: biochemical
T2 construct: JAK2 (a.a. 828-1132); His tag (N); made in house; host or cells: insect cells (baculovirus)
T2 sequence (O60674 828-1132): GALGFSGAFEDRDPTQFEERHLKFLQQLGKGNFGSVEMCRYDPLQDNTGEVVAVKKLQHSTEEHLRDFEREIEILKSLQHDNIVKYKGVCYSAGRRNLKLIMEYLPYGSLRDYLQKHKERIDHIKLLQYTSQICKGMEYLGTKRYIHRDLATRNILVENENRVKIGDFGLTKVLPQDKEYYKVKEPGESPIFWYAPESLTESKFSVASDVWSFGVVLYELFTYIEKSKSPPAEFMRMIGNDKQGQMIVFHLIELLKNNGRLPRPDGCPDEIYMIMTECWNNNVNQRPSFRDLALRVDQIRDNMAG
In short: as §1

[8] = molecular target: T3, human JAK3 (a.a. 781-1124) (Homo sapiens, UniProt P52333); experiment: In vitro JAK kinase assay (HTRF, phosphorylation of a biotinylated peptide), JAK3; format: biochemical
T3 construct: JAK3 (a.a. 781-1124); His tag (N); made in house; host or cells: insect cells (baculovirus)
T3 sequence (P52333 781-1124): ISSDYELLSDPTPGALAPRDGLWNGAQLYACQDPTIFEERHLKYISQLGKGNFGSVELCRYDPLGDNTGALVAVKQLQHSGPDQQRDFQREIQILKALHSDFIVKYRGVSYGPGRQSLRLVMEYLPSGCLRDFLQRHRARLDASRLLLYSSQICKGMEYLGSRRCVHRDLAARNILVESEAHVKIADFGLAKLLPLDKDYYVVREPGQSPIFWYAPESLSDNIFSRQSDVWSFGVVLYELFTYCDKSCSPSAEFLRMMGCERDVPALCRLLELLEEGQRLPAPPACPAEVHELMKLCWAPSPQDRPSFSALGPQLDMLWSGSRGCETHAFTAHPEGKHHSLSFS
In short: as §1

TYK2 = TYK2 (Homo sapiens, UniProt P29597); experiment: TYK2 kinase inhibition (Table A1); format: biochemical
Chain of TYK2 (P29597 whole entry): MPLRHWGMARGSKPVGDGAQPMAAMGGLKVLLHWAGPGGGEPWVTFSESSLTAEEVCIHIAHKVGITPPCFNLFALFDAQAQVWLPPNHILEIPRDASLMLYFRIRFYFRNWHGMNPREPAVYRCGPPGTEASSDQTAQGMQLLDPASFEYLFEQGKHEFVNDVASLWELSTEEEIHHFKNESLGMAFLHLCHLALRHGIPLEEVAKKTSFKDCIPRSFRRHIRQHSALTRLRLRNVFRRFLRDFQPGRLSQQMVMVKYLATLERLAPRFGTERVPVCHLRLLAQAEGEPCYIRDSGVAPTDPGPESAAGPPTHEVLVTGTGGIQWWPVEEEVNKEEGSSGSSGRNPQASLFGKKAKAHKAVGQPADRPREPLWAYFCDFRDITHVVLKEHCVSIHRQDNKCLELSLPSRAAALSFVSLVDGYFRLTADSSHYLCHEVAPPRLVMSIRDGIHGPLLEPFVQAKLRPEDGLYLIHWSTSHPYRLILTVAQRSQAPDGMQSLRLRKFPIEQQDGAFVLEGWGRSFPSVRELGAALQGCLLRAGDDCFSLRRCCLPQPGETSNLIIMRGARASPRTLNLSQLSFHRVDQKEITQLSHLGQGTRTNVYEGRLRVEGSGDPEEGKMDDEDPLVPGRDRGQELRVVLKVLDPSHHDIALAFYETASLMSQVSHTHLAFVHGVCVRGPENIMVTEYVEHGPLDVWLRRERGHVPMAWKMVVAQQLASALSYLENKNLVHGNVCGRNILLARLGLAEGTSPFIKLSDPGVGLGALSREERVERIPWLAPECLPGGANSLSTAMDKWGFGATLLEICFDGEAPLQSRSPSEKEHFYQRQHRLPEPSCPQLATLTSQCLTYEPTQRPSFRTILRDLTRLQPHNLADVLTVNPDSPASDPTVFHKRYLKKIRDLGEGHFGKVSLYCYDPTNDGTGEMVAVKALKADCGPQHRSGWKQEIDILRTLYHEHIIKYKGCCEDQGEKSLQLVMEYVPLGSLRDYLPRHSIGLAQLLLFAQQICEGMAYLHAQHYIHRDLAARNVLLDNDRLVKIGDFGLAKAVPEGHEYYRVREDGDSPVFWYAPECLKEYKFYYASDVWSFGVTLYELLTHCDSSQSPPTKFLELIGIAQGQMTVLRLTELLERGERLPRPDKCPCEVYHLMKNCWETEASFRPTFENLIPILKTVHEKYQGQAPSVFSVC

[9] = molecular target: T4, Recombinant Human Anaplastic Lymphoma Kinase (Homo sapiens, UniProt Q9UM73); experiment: ALK HTRF kinase assay; format: biochemical; details: compound at a concentration of 500 nM or 1 mM
T4 construct: purchased Invitrogen, Carlsbad, Calif
T4 sequence (Q9UM73 19-1620): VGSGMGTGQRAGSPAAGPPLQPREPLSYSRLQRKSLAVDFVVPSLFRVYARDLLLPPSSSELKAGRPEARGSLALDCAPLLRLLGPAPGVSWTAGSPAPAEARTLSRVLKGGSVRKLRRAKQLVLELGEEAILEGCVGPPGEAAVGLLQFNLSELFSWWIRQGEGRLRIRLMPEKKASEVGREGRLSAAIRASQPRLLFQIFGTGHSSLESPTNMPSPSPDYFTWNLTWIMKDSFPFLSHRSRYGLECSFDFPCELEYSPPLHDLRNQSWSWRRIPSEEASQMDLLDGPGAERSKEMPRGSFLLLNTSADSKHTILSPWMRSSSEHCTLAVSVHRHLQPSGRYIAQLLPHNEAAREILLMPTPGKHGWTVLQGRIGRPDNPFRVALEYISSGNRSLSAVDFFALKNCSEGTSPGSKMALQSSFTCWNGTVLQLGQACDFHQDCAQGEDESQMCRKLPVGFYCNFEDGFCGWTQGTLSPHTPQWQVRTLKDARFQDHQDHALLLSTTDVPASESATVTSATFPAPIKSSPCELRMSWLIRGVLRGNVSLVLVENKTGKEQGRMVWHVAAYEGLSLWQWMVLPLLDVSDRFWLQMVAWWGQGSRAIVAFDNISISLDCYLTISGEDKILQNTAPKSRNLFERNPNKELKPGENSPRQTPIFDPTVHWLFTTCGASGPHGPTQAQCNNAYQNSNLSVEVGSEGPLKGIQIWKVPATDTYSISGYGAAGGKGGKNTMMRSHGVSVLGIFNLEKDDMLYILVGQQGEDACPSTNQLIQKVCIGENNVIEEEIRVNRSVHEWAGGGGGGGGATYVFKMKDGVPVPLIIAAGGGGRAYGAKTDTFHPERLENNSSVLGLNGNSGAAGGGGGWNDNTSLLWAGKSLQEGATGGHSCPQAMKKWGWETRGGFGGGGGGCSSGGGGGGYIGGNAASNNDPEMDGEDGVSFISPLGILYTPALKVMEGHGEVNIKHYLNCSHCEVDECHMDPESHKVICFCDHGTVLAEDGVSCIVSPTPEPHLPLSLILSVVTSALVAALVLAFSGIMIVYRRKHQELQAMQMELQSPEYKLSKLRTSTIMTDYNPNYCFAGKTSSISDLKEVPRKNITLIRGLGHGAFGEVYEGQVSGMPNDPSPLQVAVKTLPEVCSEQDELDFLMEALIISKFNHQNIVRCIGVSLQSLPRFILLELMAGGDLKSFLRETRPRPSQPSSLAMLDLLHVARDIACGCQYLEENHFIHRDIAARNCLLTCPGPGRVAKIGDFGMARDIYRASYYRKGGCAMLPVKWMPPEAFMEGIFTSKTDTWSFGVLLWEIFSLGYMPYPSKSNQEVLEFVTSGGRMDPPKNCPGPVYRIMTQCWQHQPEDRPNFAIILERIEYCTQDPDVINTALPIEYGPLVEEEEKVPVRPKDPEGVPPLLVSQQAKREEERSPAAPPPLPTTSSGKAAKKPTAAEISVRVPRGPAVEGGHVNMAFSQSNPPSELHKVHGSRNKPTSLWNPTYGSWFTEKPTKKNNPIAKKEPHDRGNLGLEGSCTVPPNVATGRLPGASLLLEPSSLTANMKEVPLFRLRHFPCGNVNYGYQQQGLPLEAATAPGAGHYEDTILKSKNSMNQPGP
In short: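 Compounds were incubated with recombinant human ALK and a biotin-tagged peptide substrate. Product was captured with streptavidin-APC and probed with a europium anti-phosphotyrosine antibody, and plates were read for time-resolved fluorescence. Dose-response data were fitted to derive IC50.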

IC50 [6] | IC50 [7] | IC50 [8] | IC50 (TYK2) | ALK % inhibition at a concentration of 500 nM or 1 mM [9] | Structure (SMILES) | further results
 |  |  |  |  | COc1ccc2cc1CCc1cncc(c1)Nc1ncc(Cl)c(n1)N2 | ring closure, crude yield [1]: 85%
 |  |  |  |  | COc1cc2ncnc(Nc3ccc(O)c(Br)c3)c2cc1OC [WHI-P-154] | CD40-induced effects (JAK3 activity, costimulatory molecule expression, IL-12 production, allogeneic stimulatory capacity) [2]: prevented these effects
 |  |  |  |  | CC(C)(C)c1nc2c3cc[nH]c(=O)c3c3cc(F)ccc3c2[nH]1 [pyridone 6] | STAT3 phosphorylation [3]: inhibited; tumor cell proliferation and survival [3]: inhibited
 |  |  |  |  | C#Cc1cccc(Nc2ncnc3cc(OCCOC)c(OCCOC)cc23)c1 [Tarceva] | acneiform rash [4]: induced acneiform rash with some patients
 |  |  |  |  | COc1cc2ncnc(Nc3ccc(O)cc3)c2cc1OC [JANEX-1] | onset of diabetes (NOD mouse): delayed the onset of diabetes
> 1000 nM | > 1000 nM | > 1000 nM | > 1000 nM | 1% | Clc1cnc2nc1Nc1cccc(c1)CCc1cccc(n1)N2 [Example C17, 6-Chloro-2,4,8,20,22-pentaazatetracyclo[14.3.1.1(3,7).1(9,13)]docosa-1(20),3(22),4,6,9(21),10,12,16,18-nonaene] | ring closure, isolated yield ([5]; from Nc1cccc(CCc2cccc(Nc3nc(Cl)ncc3Cl)c2)n1, 1,4-dioxane/DMF 1:1, 75.0 mM, 160.0 °C): 37%
10 nM | 2.8 nM | 17 nM | 5.7 nM | 19% | Clc1cnc2nc1Nc1cccc(c1)/C=C\c1cc(ccn1)N2 [Example C14, (14Z)-6-Chloro-2,4,8,17,22-pentaazatetracyclo[14.3.1.1(3,7).1(9,13)]docosa-1(20),3(22),4,6,9(21),10,12,14,16,18-decaene] | ring closure, isolated yield ([5]; from Nc1ccnc(/C=C\c2cccc(Nc3nc(Cl)ncc3Cl)c2)c1, 1,4-dioxane, 114.0 mM, 150.0 °C): 35%
14 nM | 9.5 nM | 39 nM | 13 nM | 26% | Clc1cnc2nc1Nc1cccc(c1)CCc1cc(ccn1)N2 [Example C12, 6-Chloro-2,4,8,17,22-pentaazatetracyclo[14.3.1.1(3,7).1(9,13)]docosa-1(20),3(22),4,6,9(21),10,12,16,18-nonaene] | ring closure, isolated yield ([5]; from Nc1ccnc(CCc2cccc(Nc3nc(Cl)ncc3Cl)c2)c1, 1,4-dioxane, 117.0 mM, 150.0 °C): 36%
70 nM | 17 nM | 154 nM | 16 nM | 18% | Fc1cnc2nc1Nc1cccc(c1)CCc1cc(ccn1)N2 [Example C13, 6-Fluoro-2,4,8,17,22-pentaazatetracyclo[14.3.1.1(3,7).1(9,13)]docosa-1(20),3(22),4,6,9(21),10,12,16,18-nonaene] | ring closure, isolated yield ([5]; from Nc1ccnc(CCc2cccc(Nc3nc(Cl)ncc3F)c2)c1, 1,4-dioxane, 120.0 mM, 150.0 °C): 41%
